Active and inactive are the calls of the source.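 The calls were made as follows: active = compounds giving half or more protection of infected cells from virus-caused growth loss, again on retest; inactive = the rest.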
System: CEM cells HIV-1 protection, formazan growth assay
Test: NCI AIDS Antiviral Assay
Conditions: for IC50: measured here: growth of uninfected CEM cells
Procedure, shortened: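 Protection of CEM cells against HIV-1 was scored from cell growth (soluble formazan) across five concentrations, with parallel uninfected cells. Lack of protection may reflect toxicity.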

SMILES | EC50 [µM] | IC50 [µM] | outcome
COc1cc(N=Nc2ccccc2)cc(/C=N\[N-]C(N)=S)c1[O-].COc1cc(N=Nc2ccccc2)cc(/C=N\[N-]C(N)=S)c1[O-].[Fe+4] | > 26.3 | > 26.3 | –
CN(C)/C=C/c1ccncc1 | > 200 | 145 | –
N#Cc1c(N2CCOCC2)[nH]c(=O)n(-c2ccccc2)c1=S | > 200 | > 200 | –
CCOC(=O)/C(=C/c1cccc(Cl)c1)C(=O)c1ccccc1 | > 12 | > 12 | –
COc1cc2c(c3c1c(=O)c1ccccc1n3C)C=CC1(CCCCC1)O2 | > 200 | 7.76 | –
CC1=C(C(=O)Nc2ccccc2C)C(c2ccc(Cl)cc2)C(C(=O)Nc2ccccc2C)=C(C)N1 | > 2.95 | > 2.95 | –
CN(C)CC1Cc2ccsc2C1=O (stereo unspecified) | > 155 | 2.63 | –
NCCN1CC2CCC(CC2)C1 | > 200 | 182 | –
CC1CC(C)C(=O)C(C(=O)CC2CC(=O)NC2=O)C1 (stereo unspecified) | > 200 | > 200 | –
O=C1c2ccccc2CC12Cc1cc3c(cc1C2=O)CCC3 (stereo unspecified) | > 200 | > 200 | –
O=C1OC(c2ccccc2)(c2ccccc2)C(=O)OC1(c1ccccc1)c1ccccc1 | > 200 | 148 | –
CC(C)(C=O)CC(C#N)/C(=N\NC(N)=O)C(=O)Nc1ccccc1C(N)=O (stereo unspecified) | > 676 | > 676 | –
Cc1c(-c2c(C)c(=O)c3c(C(C)C)c(=O)c(=O)c(C=O)c-3c2=O)c(O)c2c(C=O)c(O)c(O)c(C(C)C)c2c1O | > 13.2 | 7.08 | –
CC(=O)/C(=C/c1ccc(Br)cc1)C(=O)c1ccccc1 | – | – | inactive
CC1C/C(=N\N(C)C)C(C#N)(C#N)C1(C#N)C#N (stereo unspecified) | > 200 | 6.03 | –
CC1(C)CC2(C)ON=C(c3ccccc3)N2c2ccccc2N1 (stereo unspecified) | 57.5 | 105 | –
O=c1ccc2cc3ccoc3c(OCCCCCCCCCCCCOc3c4occc4cc4ccc(=O)oc34)c2o1 | > 38.9 | > 38.9 | –
CCCNC(=O)c1nc(SC)sc1NC(=O)c1ccccc1 | > 200 | > 200 | –
CC(C)=NOC(=O)CNC(=O)C(Cc1ccccc1)NC(=O)C(C)NC(=O)OC(C)(C)C (stereo unspecified) | > 200 | > 200 | –
COc1ccc(C2C(C#N)=C(S)N(C3OC(CO)C(O)C(O)C3O)C(C)=C2C(C)=O)cc1 (stereo unspecified) | > 200 | 89.1 | –
CCOC(=O)C[n+]1cccc(C2(c3cc4ccccc4[nH]3)OCCO2)c1 | > 200 | > 200 | –
COc1ccc(/C=C(\C#N)c2cccnc2)cc1OC | > 25.1 | 23.4 | –
O=c1[nH]c(Nc2cccc(C(F)(F)F)c2)nc2nc[nH]c12 | > 200 | 97.7 | –

SMILES | EC50 [µM] | IC50 [µM] | outcome
Cc1cc(N(CCC#N)CCC#N)ccc1/C=C(\NC(=O)/C=C/c1ccccc1)C(=O)Nc1ccc(Cl)cc1 | > 13.5 | > 13.5 | –
CC1C2CC(CC23OCC(CCl)O3)C1(C)C (stereo unspecified) | > 200 | > 200 | –
NS(=O)(=O)c1nnc(NC(=O)Nc2ccc(Cl)c(Cl)c2)s1 | > 200 | 26.3 | –
Cc1cc(C)c(O)c(CN(Cc2ccccn2)Cc2ccccn2)c1 | – | – | inactive
COc1cc(/C=C/C(=N\NS(=O)(=O)c2ccc(C)cc2)c2sc(NNC(C)=O)nc2C)ccc1O | > 46.8 | > 46.8 | –
O=[N+]([O-])c1ccccc1S(=O)(=O)Oc1ccc(Cl)cc1 | – | – | active
CCOP(=O)(OCC)/C(C#N)=C/c1ccc2ccccc2c1 | > 22.9 | > 22.9 | –
CN(/N=C(\C(=O)O)c1ccccc1)C1=NCCCCN1 | > 200 | > 100 | –
CS(=O)(=O)OCCN1CCN(C(=O)c2cccc3c(Nc4ccc(S(N)(=O)=O)cc4)c4ccccc4nc23)CC1 | > 51.3 | > 51.3 | –
O=c1c2cc([N+](=O)[O-])ccc2n2n1CCCC2 | > 200 | > 200 | –
COC(=O)C1Cc2cc3c(cc2C1=O)CCC3 (stereo unspecified) | > 200 | 135 | –
CN1C2=CC=CC=CC2=[N+](C)C1C(=C=[N-])C#N (stereo unspecified) | > 363 | 245 | –
COc1cccc(C2C3=C(COC3=O)Oc3cc4c(cc32)OCO4)c1 (stereo unspecified) | > 2 | 0.0851 | –
O=C(O)Cc1ccc(Nc2nc3cc(C(F)(F)F)ccc3nc2C(=O)O)cc1 | > 200 | > 200 | –
COC(=O)CNC(=O)c1cc(C)cc2c1Oc1c(cc(C)cc1C(=O)NCC(=O)OC)S2 | > 200 | > 200 | –
COc1ccc2[nH]c3c4c(ccc3c2c1)C(=O)C=CC4=O | > 93.3 | 4.47 | –
OCC(O)COc1ccc(Br)cc1 (stereo unspecified) | > 1000 | 646 | –
C=C1C(=O)OCC2C(C(=O)O)=CC3C(C)C(C)=CC123 (stereo unspecified) | > 692 | 11.2 | –
Cn1ccnc1.Cn1ccnc1.[O-][Cl+3]([O-])([O-])[O-].[Pt+2].c1ccc(-c2ccccn2)nc1 | > 200 | > 200 | –
CCC1=CCN(c2ccccn2)OC1c1ccc(OC)cc1 (stereo unspecified) | > 63.1 | 60.3 | –
COc1ccc2nc(C(=O)c3ccccc3)c(C)cc2c1 | > 25.7 | 17.4 | –
O=C(Cc1ccccc1)NN1C(=O)C(Cl)C1c1cccc(O)c1 (stereo unspecified) | > 40.7 | 15.5 | –
O=c1[nH]nc(NCc2ccccc2)c2nnn(Cc3ccccc3)c12 | > 200 | > 200 | –

SMILES | EC50 [µM] | IC50 [µM] | outcome
Nc1nc(Cl)c(Cl)c(NCC2(O)CCC2)n1 | > 200 | 20.9 | –
O=c1ccc2ccc(OP(=O)(O)O)cc2o1 | > 200 | > 200 | –
COC(=O)/C(C#N)=C1\N=NNN1c1ccc(OC)cc1 | – | – | inactive
COC(=O)c1ccc(CSc2ccc(Cl)cc2)cc1 | > 4.9 | 3.55 | –
CC1(C(=O)O)CCOc2ccccc21 (stereo unspecified) | – | – | inactive
CN=c1ssc(=S)n1C(C)C | > 200 | 16.2 | –
NC(=S)N/N=C/c1c(O)c2cc(Cl)ccc2[nH]c1=O | > 200 | 93.3 | –
NC1=NS(=O)(=O)Nc2nc(-c3ccccc3)[nH]c21 | > 20 | > 20 | –
OC(CNc1ncccn1)c1ccccc1 (stereo unspecified) | > 200 | > 200 | –
CCCCCCCCCC(=O)Oc1c2ccoc2cc2oc(=O)ccc12 | > 63.1 | > 63.1 | –
CCNC(=O)Sc1ccccc1C(=O)NCCC(N)=O | 1.1 | 102 | –
C[C@@H]1C(=O)c2c(O)cc(O)cc2O[C@@H]1C | > 200 | > 200 | –
CCOC(=O)N1N=C(c2ccccc2)OC2(N3CCOCC3)CCC(C(C)(C)C)CC12 (stereo unspecified) | 30.2 | 31.6 | –
O=C1C[C@@H]2[C@@H](CCC23CCCC3)N1 | – | – | inactive
Cc1ccc(Nc2nc(C)c(C(/C=C/c3ccc(/C=C/C(=N/NC(=O)C[n+]4ccccc4)c4sc(Nc5ccc(C)cc5[N+](=O)[O-])nc4C)cc3)=N\NC(=O)C[n+]3ccccc3)s2)c([N+](=O)[O-])c1 | > 35.5 | > 35.5 | –
COC(C(=O)[O][Ge]([CH3])([CH3])[CH3])c1ccccc1 (stereo unspecified) | > 251 | > 251 | –
CO[C@H](/C(C)=C/C=C/C(C)=C/c1coc(C)n1)[C@H](C)[C@H]1C[C@@H](O)[C@@]2(C)O[C@H]2/C=C/[C@@H](C)[C@@H]2C[C@@H](CC(=O)O2)C[C@H]2O[C@@H]2C(=O)O1 | > 0.219 | 0.00017 | –
NC(N)=Nc1nn[nH]n1 | > 200 | > 200 | –
N#Cc1c(/C=C/c2ccccc2)c2c([nH]c1=S)CCCCC2 | 339 | 501 | –
O=[N+]([O-])c1[nH]cnc1S | > 200 | > 200 | –
COc1ccc(C(c2ccc3cccnc3c2O)c2ccc3cccnc3c2O)cc1 | – | – | inactive
COC(=O)C1C(=O)CC(C)(O)C(C(=O)OC)C1c1ccc(N(C)C)cc1 (stereo unspecified) | > 200 | > 200 | –
COC(=O)C1CCc2c(OC)ccc(OC)c2C1=O (stereo unspecified) | – | – | inactive

SMILES | EC50 [µM] | IC50 [µM] | outcome
CCOP(=O)(OCC)C(c1ccccc1)N(C(=O)NC(F)(F)F)c1cccc(F)c1 (stereo unspecified) | > 200 | 95.5 | –
Cn1c2c(c3ccccc31)CCN=C2C1CCCOC1=O (stereo unspecified) | > 200 | > 200 | –
COC(=O)C(Cc1ccccc1)OC(=O)C(N)CC(=O)O (stereo unspecified) | > 200 | > 200 | –
COc1ccc2[nH]c3c([N+](=O)[O-])ccc(Cl)c3c(=O)c2c1 | – | – | inactive
O=C1CN(CCCN2CCOCC2)CC(=O)N2Cc3ccccc3CN12 | > 200 | > 200 | –
CCCCCCCCCCOCC(COCCOCC(COCCCCCCCCCC)OCCCS(=O)(=O)O)OCCCS(=O)(=O)O (stereo unspecified) | > 204 | 107 | –
N#CCCC1C(C#N)C2(Cl)CC1(Cl)C(Cl)=C2Cl (stereo unspecified) | > 200 | 23.4 | –
COc1ccc(CCNC(=O)[C@H]2CCCC[C@@H]2CCO)cc1OC | > 200 | > 200 | –
CCCCOC(=O)C1CN2C(=NC1(C(F)(F)F)C(F)(F)F)Sc1ccccc12 (stereo unspecified) | – | – | inactive
COC(=O)C(/C(=N/NC(N)=O)C(=O)Nc1c(C)cccc1C(C)(C)C)c1nc2ccc(Cl)cc2[nH]c1=O (stereo unspecified) | – | – | inactive
NC1(CCNC(=O)c2ccccc2)CCN(C(=O)c2ccccc2)CC1 | > 200 | 145 | –
COC1CCC(=O)N1CC/C=C(/Br)[Si](C)(C)C (stereo unspecified) | – | – | inactive
COc1cc(N/N=C/C#N)cc(OC)c1OC | > 45.7 | 2.24 | –
CN=C(NC)c1ccc(NC(=O)c2ccc(C(=O)Nc3ccc(C(=NC)NC)c(C)c3)cc2)cc1C | – | – | inactive
COC(=O)c1c(C#C[Si](C)(C)C)c(C#C[Si](C)(C)C)c(C#C[Si](C)(C)C)c(C#C[Si](C)(C)C)c1C(=O)OC | > 50.1 | > 50.1 | –
COc1ccc(C(C)NNC(=O)c2ccncc2)c(OC)c1 (stereo unspecified) | > 200 | 29.5 | –
Cc1ccc(SS(=O)(=O)c2ccc(C)cc2)cc1 | > 38 | 6.61 | –
COc1nc2nc[nH]c2c(=O)[nH]1 | – | – | inactive
Cc1ccc2c(c1)nc1c3ccccc3nc(-c3ccccc3N)n21 | > 28.8 | > 28.8 | –
O=C1Oc2ccccc2CC1C(=O)c1ccc(Cl)cc1 (stereo unspecified) | > 18.2 | > 18.2 | –
Cc1cc2c(C)nn(Cc3ccccc3Cl)c2c(C#N)c1C | > 23.4 | > 23.4 | –

Reference: PubChem BioAssay AID179 (DTP/NCI, 2004)
